Data set [1] concerns the target T1, Y2 receptor (Homo sapiens, UniProt P49146).
T1 construct: host or cells: ACTOne HEK-293 cells
T1 sequence (P49146 1-381): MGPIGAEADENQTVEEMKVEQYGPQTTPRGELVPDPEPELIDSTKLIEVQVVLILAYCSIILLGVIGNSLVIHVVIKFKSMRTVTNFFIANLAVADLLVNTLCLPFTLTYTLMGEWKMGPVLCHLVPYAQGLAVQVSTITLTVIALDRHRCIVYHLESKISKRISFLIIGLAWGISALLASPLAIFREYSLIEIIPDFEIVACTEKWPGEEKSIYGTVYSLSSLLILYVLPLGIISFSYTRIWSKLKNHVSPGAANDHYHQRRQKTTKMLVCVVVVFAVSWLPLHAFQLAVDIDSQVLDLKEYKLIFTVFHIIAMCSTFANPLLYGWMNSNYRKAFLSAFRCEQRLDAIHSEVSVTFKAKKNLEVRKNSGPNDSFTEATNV
In words: Y2 receptor ACTOne based FLIPR assay (cAMP biosensor). In kind it is cell-based.

A short description of data set [2]: in vivo. The note with it: Göttingen, minipig. A digest of the protocol:
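Catheterised mini-pigs received compound i.v. at 10 nmol/kg in pH 4.0 phosphate/NaCl/tween vehicle, or alternatively i.v. or s.c. at 1–30 nmol/kg in pH 8.0 K2HPO4/tween. Stabilised plasma was sampled up to 13 days and assayed by LC-MS (LLOQ 2 nM). Half-life came from non-compartmental analysis of individual animal profiles.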

The target of data set [3] is T2, Y4 receptor (Homo sapiens, UniProt P50391).
T2 construct: host or cells: ACTOne HEK-293 cells
T2 sequence (P50391 whole entry): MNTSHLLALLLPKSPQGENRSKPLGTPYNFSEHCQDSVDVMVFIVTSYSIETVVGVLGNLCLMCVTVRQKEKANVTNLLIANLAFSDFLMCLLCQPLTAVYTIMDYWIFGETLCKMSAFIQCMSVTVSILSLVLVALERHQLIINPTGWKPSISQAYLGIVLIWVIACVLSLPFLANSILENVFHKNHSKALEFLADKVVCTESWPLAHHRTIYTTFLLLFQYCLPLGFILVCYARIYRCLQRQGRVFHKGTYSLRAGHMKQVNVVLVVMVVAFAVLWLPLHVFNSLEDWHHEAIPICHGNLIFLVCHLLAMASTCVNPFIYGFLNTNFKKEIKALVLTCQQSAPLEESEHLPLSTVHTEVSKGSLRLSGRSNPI
In words: Y4 receptor ACTOne based FLIPR assay (cAMP biosensor). In kind it is cell-based. The source says: ACTOne™ is an easily scaleable cAMP biosensor HTS platform for measurement of Gs and Gi coupled 7™ receptor signalling from BD Biosciences (San Jose, Calif.). The cells express a biosensor developed around a modified rat olfactory cyclic nucleotide gated (CNG) calcium channel—a fairly non-discriminatory ion channel that responds to cAMP and cGMP. The CNG has been engineered to be cAMP selective and thus function as a cAMP responsive biosensor that signals through calcium or membrane potential responsive dyes. Y2 or Y4 receptor expressing ACTOne HEK-293 cells are obtained from BD Biosciences. The cells are loaded with a calcium responsive dye that only distributes in the cytoplasm. Probenecid, an inhibitor of the organic anion transporter is added to prevent the dye from leaving the cell. A phosphodiesterase inhibitor is added to prevent formatted cAMP from being degraded. Isoproterenol (an β1/β2 agonist) is added to activate the adenylate cyclase. When an Y2 or Y4 receptor agonist is added, the adenylate cyclase is inactivated. The decreased calcium concentration in the cytoplasm is then detected as an increase in fluorescence. Together with the test substance, Isoproterenol at a concentration matching EC80, is added to all wells. • The cells are plated out in Greiner 384-well plates. […] The plates are covered with tinfoil to avoid light (the dye can be excited by the daylight, which results in higher baseline and variation). • The FLIPR (FLIPRtetra from Molecular Devices, CA, USA) adds 1 μl sample and 1 μl isoproterenol (0.05 μM final concentration) at the same time. • The fluorescence signal from the wells is measured 330 seconds after sample addition on the FLIPR.

[4] abbreviates: Table 2, PP analogues, ACTOne HEK-293 cells, read-out: Y2 cAMP EC50.
Where [5] appears, read: Table 2, PP analogues, ACTOne HEK-293 cells, read-out: Y4 cAMP EC50.

Where two headings read alike, the source gives them in different places. *1 amine or outer side, *2 acyl side, *3 side chain or, on linkers, in order; H or OH if unused. Where a SMILES comes first, the peptide text is derived from it. Side-chain parts run from the residue outwards. The star is where a group is joined. C20 diacid = O=C(O)CCCCCCCCCCCCCCCCCCC(=O)*; γGlu = O=C(O)[C@H](CCC(=O)[*:2])N[*:1]; Trx = NC[C@H]1CC[C@H](C(=O)O)CC1; AEEA = NCCOCCOCC(=O)O

Regarding `CC[C@H](C)[C@H](NC(=O)[C@H](Cc1ccc(O)cc1)NC(=O)[C@H](CCCNC(=N)N)NC(=O)[C@H](CCCNC(=N)N)NC(=O)[C@H](CC(C)C)NC(=O)[C@H](CC(=O)O)NC(=O)[C@H](C)NC(=O)[C@H](C)NC(=O)[C@H](Cc1ccc(O)cc1)NC(=O)[C@H](CCC(N)=O)NC(=O)[C@H](C)NC(=O)[C@H](CC(C)C)NC(=O)[C@H](CCC(N)=O)NC(=O)[C@H](CCC(=O)O)NC(=O)[C@@H]1CCCN1C(=O)[C@@H](NC(=O)[C@H](C)NC(=O)[C@H](CC(N)=O)NC(=O)[C@H](CC(=O)O)NC(=O)CNC(=O)[C@@H]1CCCN1C(=O)[C@H](Cc1ccc(O)cc1)NC(=O)[C@@H](NC(=O)[C@@H]1CCCN1C(=O)[C@H](CCC(=O)O)NC(=O)[C@H](CC(C)C)NC(=O)[C@@H]1CCCN1)C(C)C)[C@@H](C)O)C(=O)N[C@@H](CCCCNC(=O)COCCOCCNC(=O)COCCOCCNC(=O)CC[C@H](NC(=O)[C@H]1CC[C@H](CNC(=O)CCCCCCCCCCCCCCCCCCC(=O)O)CC1)C(=O)O)C(=O)N[C@@H](CC(C)C)C(=O)N[C@@H](CC(C)C)C(=O)N[C@H](C(=O)N[C@@H](CCCNC(=N)N)C(=O)N1CCC[C@H]1C(=O)N[C@@H](CCCNC(=N)N)C(=O)N[C@@H](Cc1ccc(O)cc1)C(N)=O)[C@@H](C)O` [SEQ ID NO: 44, N-epsilon29-[2-(2-{2-[2-(2-{2-[(S)-4-Carboxy-4-({trans-4-[(19-carboxynonadecanoylamino)methyl]cyclohexanecarbonyl}amino)butyrylamino]-ethoxy}ethoxy)acetylamino]ethoxy}ethoxy)acetyl][Leu17,Lys29,Leu30]hPP2-36] (H-PLEPVYPGDNATPEQLAQYAADLRRYIK([AEEA-AEEA-γGlu-Trx-C20 diacid])LLTRPRY-NH2), the EC50 is over 1000 nM in data set [1] (setting [4]) and over 890 nM in data set [3] (setting [5]). Also, the half-life in data set [2] (iv, 4 nmol/kg) was 74 h; in data set [2] (male, sc, 4 nmol/kg), 93 h.
As to `CC[C@H](C)[C@H](NC(=O)[C@H](Cc1ccc(O)cc1)NC(=O)[C@H](CCCNC(=N)N)NC(=O)[C@H](CCCNC(=N)N)NC(=O)[C@H](CC(C)C)NC(=O)[C@H](CC(=O)O)NC(=O)[C@H](C)NC(=O)[C@H](C)NC(=O)[C@H](Cc1ccc(O)cc1)NC(=O)[C@H](CCC(N)=O)NC(=O)[C@H](C)NC(=O)[C@H](CC(C)C)NC(=O)[C@H](CCC(N)=O)NC(=O)[C@H](CCC(=O)O)NC(=O)[C@@H]1CCCN1C(=O)[C@@H](NC(=O)[C@H](C)NC(=O)[C@H](CCCCNC(=O)COCCOCCNC(=O)COCCOCCNC(=O)CC[C@H](NC(=O)[C@H]1CC[C@H](CNC(=O)CCCCCCCCCCCCCCCCCCC(=O)O)CC1)C(=O)O)NC(=O)[C@H](CC(=O)O)NC(=O)CNC(=O)[C@@H]1CCCN1C(=O)[C@H](Cc1ccc(O)cc1)NC(=O)[C@@H](NC(=O)[C@@H]1CCCN1C(=O)[C@H](CCC(=O)O)NC(=O)[C@H](CC(C)C)NC(=O)[C@@H]1CCCN1)C(C)C)[C@@H](C)O)C(=O)N[C@@H](CC(N)=O)C(=O)N[C@@H](CC(C)C)C(=O)N[C@@H](CC(C)C)C(=O)N[C@H](C(=O)N[C@@H](CCCNC(=N)N)C(=O)N1CCC[C@H]1C(=O)N[C@@H](CCCNC(=N)N)C(=O)N[C@@H](Cc1ccc(O)cc1)C(N)=O)[C@@H](C)O` [SEQ ID NO: 29, N-epsilon11-[2-(2-{2-[2-(2-{2-[(S)-4-Carboxy-4-({trans-4-[(19-carboxynonadecanoylamino)methyl]cyclohexanecarbonyl}amino)butyrylamino]-ethoxy}ethoxy)acetylamino]ethoxy}ethoxy)acetyl][Lys11,Leu17,Leu30]hPP2-36] (H-PLEPVYPGDK([AEEA-AEEA-γGlu-Trx-C20 diacid])ATPEQLAQYAADLRRYINLLTRPRY-NH2; N-terminus and C-terminus assumed), the EC50 in data set [1] is over 1000 nM; in data set [3], 2 nM. Besides, the half-life was 23 h in data set [2] (in vivo, iv, 1 nmol/kg) and 27 h in data set [2] (in vivo, iv, 30 nmol/kg).
Regarding `CC[C@H](C)[C@H](NC(=O)[C@H](Cc1ccc(O)cc1)NC(=O)[C@H](CCCNC(=N)N)NC(=O)[C@H](CCCNC(=N)N)NC(=O)[C@H](CC(C)C)NC(=O)[C@H](CC(=O)O)NC(=O)[C@H](C)NC(=O)[C@H](C)NC(=O)[C@H](Cc1ccc(O)cc1)NC(=O)[C@H](CCC(N)=O)NC(=O)[C@H](C)NC(=O)[C@H](CC(C)C)NC(=O)[C@H](CCC(N)=O)NC(=O)[C@H](CCC(=O)O)NC(=O)[C@@H]1CCCN1C(=O)[C@@H](NC(=O)[C@H](C)NC(=O)[C@H](CC(N)=O)NC(=O)[C@H](CC(=O)O)NC(=O)CNC(=O)[C@@H]1CCCN1C(=O)[C@H](Cc1ccc(O)cc1)NC(=O)[C@@H](NC(=O)[C@@H]1CCCN1C(=O)[C@H](CCC(=O)O)NC(=O)[C@H](CC(C)C)NC(=O)[C@@H]1CCCN1)C(C)C)[C@@H](C)O)C(=O)N[C@@H](CC(N)=O)C(=O)N[C@@H](CC(C)C)C(=O)N[C@@H](CC(C)C)C(=O)N[C@H](C(=O)N[C@@H](CCCNC(=N)N)C(=O)N1CCC[C@H]1C(=O)N[C@@H](CCCCNC(=O)COCCOCCNC(=O)COCCOCCNC(=O)CC[C@H](NC(=O)[C@H]1CC[C@H](CNC(=O)CCCCCCCCCCCCCCCCCCC(=O)O)CC1)C(=O)O)C(=O)N[C@@H](Cc1ccc(O)cc1)C(N)=O)[C@@H](C)O` [SEQ ID NO: 48, N-epsilon35-[2-(2-{2-[2-(2-{2-[(S)-4-Carboxy-4-({trans-4-[(19-carboxynonadecanoylamino)methyl]cyclohexanecarbonyl}amino)butyrylamino]-ethoxy}ethoxy)acetylamino]ethoxy}ethoxy)acetyl][Leu17,Leu30,Lys35]hPP2-36] (H-PLEPVYPGDNATPEQLAQYAADLRRYINLLTRPK([AEEA-AEEA-γGlu-Trx-C20 diacid])Y-NH2), the EC50 in data set [1] (setting [4]) and in data set [3] (setting [5]) was over 1000 nM throughout. Besides, the half-life in data set [2] (iv, 10 nmol/kg) was 93 h.
With `CC[C@H](C)[C@H](NC(=O)[C@H](Cc1ccc(O)cc1)NC(=O)[C@H](CCCNC(=N)N)NC(=O)[C@H](CCCNC(=N)N)NC(=O)[C@H](CC(C)C)NC(=O)[C@H](CC(=O)O)NC(=O)[C@H](C)NC(=O)[C@H](C)NC(=O)[C@H](Cc1ccc(O)cc1)NC(=O)[C@H](CCC(N)=O)NC(=O)[C@H](C)NC(=O)[C@H](CC(C)C)NC(=O)[C@H](CCC(N)=O)NC(=O)[C@H](CCC(=O)O)NC(=O)[C@@H]1CCCN1C(=O)[C@H](CCCCNC(=O)COCCOCCNC(=O)COCCOCCNC(=O)CC[C@H](NC(=O)[C@H]1CC[C@H](CNC(=O)CCCCCCCCCCCCCCCCCCC(=O)O)CC1)C(=O)O)NC(=O)[C@H](C)NC(=O)[C@H](CC(N)=O)NC(=O)[C@H](CC(=O)O)NC(=O)CNC(=O)[C@@H]1CCCN1C(=O)[C@H](Cc1ccc(O)cc1)NC(=O)[C@@H](NC(=O)[C@@H]1CCCN1C(=O)[C@H](CCC(=O)O)NC(=O)[C@H](CC(C)C)NC(=O)[C@@H]1CCCN1C(=O)[C@H](C)N)C(C)C)C(=O)N[C@@H](CC(N)=O)C(=O)N[C@H](C(=O)N[C@@H](CC(C)C)C(=O)N[C@H](C(=O)N[C@@H](CCCNC(=N)N)C(=O)N[C@@H](CCC(N)=O)C(=O)N[C@@H](CCCNC(=N)N)C(=O)N[C@@H](Cc1ccc(O)cc1)C(N)=O)[C@@H](C)O)C(C)C` [SEQ ID NO: 17, N-epsilon13-[2-(2-{2-[2-(2-{2-[(S)-4-Carboxy-4-({trans-4-[(19-carboxynonadecanoylamino)methyl]cyclohexanecarbonyl}amino)butyrylamino]-ethoxy}ethoxy)acetylamino]ethoxy}ethoxy)acetyl][Lys13,Leu17,Val30,Gln34]hPP(1-36)] (H-APLEPVYPGDNAK([AEEA-AEEA-γGlu-Trx-C20 diacid])PEQLAQYAADLRRYINVLTRQRY-NH2; N-terminus and C-terminus assumed), in data set [3], it took 7 nM to reach a half-maximal effect (EC50).

The term EC50 denotes the concentration that produces a half-maximal response. Broadly, the half-life is the time in which the quantity being followed falls by half.

The values above are taken from patent publication US20110275559A1, “Long-Acting Y2 and/or Y4 Receptor Agonists” (Novo Nordisk A/S, priority 2008, published 2011).
